Measurements taken from PubChem BioAssay AID292 (DTP/NCI, 2004).
“And” between values parts separate entries of the source, which are not always exact repeats. Equal values may be shown once. Toxic doses and inconclusive results are not listed.

Test system: B6C3F1 mice, ip Sarcoma M5076, median survival T/C
Test: NCI In Vivo Anticancer Drug Screen. Data for tumor model Sarcoma M5076 (intraperitoneal) in B6C3F1 mice
Settings: endpoint: median survival time, higher = longer survival
Method in brief: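 Transplantable tumour in mice; compound-treated vs vehicle-treated groups. Read-out: survival. Value = treated/control ratio.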

[1] = dose: 50.0 mg/kg/injection, schedule: Q04DX004 (ip), vehicle: Klucel (hydroxypropylcellulose) (HPC)
[2] = dose: 200.0 mg/kg/injection, schedule: Q04DX004 (ip), vehicle: Klucel (hydroxypropylcellulose) (HPC)
[3] = dose: 400.0 mg/kg/injection, schedule: Q04DX004 (ip), vehicle: Klucel (hydroxypropylcellulose) (HPC)
[4] = dose: 25.0 mg/kg/injection, schedule: Q04DX004 (ip), vehicle: saline with Tween-80
[5] = dose: 50.0 mg/kg/injection, schedule: Q04DX004 (ip), vehicle: saline with Tween-80
[6] = dose: 100.0 mg/kg/injection, schedule: Q04DX004 (ip), vehicle: saline with Tween-80
[7] = dose: 200.0 mg/kg/injection, schedule: Q04DX004 (ip), vehicle: saline with Tween-80
[8] = dose: 400.0 mg/kg/injection, schedule: Q04DX004 (ip), vehicle: saline with Tween-80
[9] = dose: 100.0 mg/kg/injection, schedule: Q04DX004 (ip), vehicle: Klucel (hydroxypropylcellulose) (HPC)
[10] = dose: 75.0 mg/kg/injection, schedule: Q04DX004 (ip), vehicle: Klucel (hydroxypropylcellulose) (HPC)
[11] = dose: 150.0 mg/kg/injection, schedule: Q04DX004 (ip), vehicle: Klucel (hydroxypropylcellulose) (HPC)
[12] = dose: 25.0 mg/kg/injection, schedule: Q04DX004 (ip), vehicle: Klucel (hydroxypropylcellulose) (HPC)

Question: Which results are given for `COc1cc(C2c3cc4c(cc3[C@@H](OC3OC5CO[C@@H](C)OC5C(O)C3O)[C@H]3COC(=O)C23)OCO4)cc(OC)c1OC` (some centres not stated)?
Answer: T/C (dose: 25.0 mg/kg/injection, schedule: Q04DX004 (ip), vehicle: saline): 116 % of control; T/C [1]: 118 % of control; T/C (dose: 50.0 mg/kg/injection, schedule: Q04DX004 (ip), vehicle: saline): 110 % of control; T/C (dose: 50.0 mg/kg/injection, schedule: Q04DX004 (ip), vehicle: suspension in saline): 103 % of control; T/C (dose: 100.0 mg/kg/injection, schedule: Q04DX004 (ip), vehicle: saline): 122 % of control; T/C (dose: 100.0 mg/kg/injection, schedule: Q04DX004 (ip), vehicle: suspension in saline): 99 % of control; T/C [2]: 171 % of control; T/C (dose: 200.0 mg/kg/injection, schedule: Q04DX004 (ip), vehicle: suspension in saline): 123 % of control; T/C (dose: 300.0 mg/kg/injection, schedule: Q04DX004 (ip), vehicle: suspension in saline): 168 % of control; T/C [3]: 233 % of control

Question: `NNC(=O)c1ccc(OCc2nc3ccccc3[nH]2)cc1` was tested. Which T/C [4] did it give?
Answer: 99 % of control

Question: And the T/C [5]?
Answer: 102 % of control

Question: What about the T/C [6] of the same molecule?
Answer: 101 % of control

Question: And the T/C [7]?
Answer: 106 % of control

Question: What about the T/C [8] of the same molecule?
Answer: 97 % of control

Question: For `Cc1cc2c(C(C)C)c(O)c(O)c(C=NCCO)c2c(O)c1-c1c(C)cc2c(C(C)C)c(O)c(O)c(C=NCCO)c2c1O`, which T/C [5] is on record?
Answer: 116 % of control

Question: What about the T/C (dose: 86.4 mg/kg/injection, schedule: Q04DX004 (ip), vehicle: saline with Tween-80) of the same molecule?
Answer: 120 % of control

Question: And the T/C [6]?
Answer: 121 % of control

Question: And the T/C [7]?
Answer: 123 % of control

Question: What about the T/C (dose: 240.0 mg/kg/injection, schedule: Q04DX004 (ip), vehicle: saline with Tween-80) of the same molecule?
Answer: 150 % of control

Question: And the T/C [8]?
Answer: 92 % of control and 210 % of control

Question: What about the T/C (dose: 800.0 mg/kg/injection, schedule: Q04DX004 (ip), vehicle: saline with Tween-80) of the same molecule?
Answer: 180 % of control

Question: What does the source list for `CC(=O)Oc1ccccc1O`?
Answer: T/C (dose: 6.25 mg/kg/injection, schedule: Q04DX004 (ip), vehicle: saline + Tween-80 + alcohol): 112 % of control; T/C (dose: 12.5 mg/kg/injection, schedule: Q04DX004 (ip), vehicle: saline + Tween-80 + alcohol): 107 % of control; T/C (dose: 25.0 mg/kg/injection, schedule: Q04DX004 (ip), vehicle: saline + Tween-80 + alcohol): 95 % of control; T/C (dose: 50.0 mg/kg/injection, schedule: Q04DX004 (ip), vehicle: saline + Tween-80 + alcohol): 98 % of control

Question: Which results are given for `COc1ccccc1N1C(=O)C(=O)C(C(C)=O)C1=O` (configuration not stated)?
Answer: T/C (dose: 43.75 mg/kg/injection, schedule: Q04DX004 (ip), vehicle: Klucel (hydroxypropylcellulose) (HPC)): 115 % of control; T/C (dose: 87.5 mg/kg/injection, schedule: Q04DX004 (ip), vehicle: Klucel (hydroxypropylcellulose) (HPC)): 98 % of control; T/C (dose: 175.0 mg/kg/injection, schedule: Q04DX004 (ip), vehicle: Klucel (hydroxypropylcellulose) (HPC)): 100 % of control; T/C (dose: 350.0 mg/kg/injection, schedule: Q04DX004 (ip), vehicle: Klucel (hydroxypropylcellulose) (HPC)): 98 % of control

Question: Which results are given for `O=C(Nc1ccc(Cl)c(Cl)c1)C1C(=O)C(=O)N(c2ccc(Cl)c(Cl)c2)C1=O` (configuration not stated)?
Answer: T/C [1]: 91 % of control; T/C [9]: 92 % of control; T/C [2]: 89 % of control

Question: With `NC(=O)C1=CC2C3C=CC2(O)C(=O)OC3O1` (configuration not stated) as the molecule, how does the T/C (dose: 7.5 mg/kg/injection, schedule: Q04DX004 (ip), vehicle: Klucel (hydroxypropylcellulose) (HPC)) read?
Answer: 98 % of control

Question: What about the T/C (dose: 15.0 mg/kg/injection, schedule: Q04DX004 (ip), vehicle: Klucel (hydroxypropylcellulose) (HPC)) of the same molecule?
Answer: 95 % of control

Question: And the T/C (dose: 30.0 mg/kg/injection, schedule: Q04DX004 (ip), vehicle: Klucel (hydroxypropylcellulose) (HPC))?
Answer: 101 % of control

Question: What about the T/C (dose: 60.0 mg/kg/injection, schedule: Q04DX004 (ip), vehicle: Klucel (hydroxypropylcellulose) (HPC)) of the same molecule?
Answer: 106 % of control

Question: What does the source list for `Cc1ccc(-c2c([N+](=O)[O-])c3ccccn3c2[N+](=O)[O-])cc1`?
Answer: T/C (dose: 75.0 mg/kg/injection, schedule: Q04DX004 (ip), vehicle: saline with Tween-80): 97 % of control; T/C (dose: 150.0 mg/kg/injection, schedule: Q04DX004 (ip), vehicle: saline with Tween-80): 87 % of control; T/C (dose: 300.0 mg/kg/injection, schedule: Q04DX004 (ip), vehicle: saline with Tween-80): 87 % of control; T/C (dose: 600.0 mg/kg/injection, schedule: Q04DX004 (ip), vehicle: saline with Tween-80): 101 % of control

Question: What does the source list for `O=P1(N(CCCl)CCCl)NCCCO1` (configuration not stated)?
Answer: T/C (dose: 80.0 mg/kg/injection, schedule: Q04DX003 (ip), vehicle: saline): 201 % of control; T/C (dose: 160.0 mg/kg/injection, schedule: Q04DX003 (ip), vehicle: saline): 261 % of control

Question: Which results are given for `O=c1oc2c(O)c(O)cc3c(=O)oc4c(O)c(O)cc1c4c23`?
Answer: T/C [10]: 123 % of control; T/C [11]: 115 % of control; T/C (dose: 300.0 mg/kg/injection, schedule: Q04DX004 (ip), vehicle: Klucel (hydroxypropylcellulose) (HPC)): 120 % of control; T/C (dose: 600.0 mg/kg/injection, schedule: Q04DX004 (ip), vehicle: Klucel (hydroxypropylcellulose) (HPC)): 111 % of control; T/C (dose: 1200.0 mg/kg/injection, schedule: Q04DX004 (ip), vehicle: Klucel (hydroxypropylcellulose) (HPC)): 108 % of control

Question: With `O=C1N(Cl)C(=O)C(c2ccc(Cl)cc2)(c2ccc(Cl)cc2)N1Cl` as the molecule, how does the T/C [4] read?
Answer: 102 % of control

Question: And the T/C [5]?
Answer: 102 % of control

Question: And the T/C [6]?
Answer: 96 % of control

Question: `CC1=CC(C)C(O)C(C)/C=C/C(O)C/C=C(/C)C(=O)CC(O)C(C)\C=C/C=C/C=C\C(=O)NC2=C(O)c3cc(C)c(O)c(c3C(=O)C2=O)C1=O` (configuration not stated) was tested. Which T/C (dose: 1.25 mg/kg/injection, schedule: Q04DX004 (ip), vehicle: Klucel (hydroxypropylcellulose) (HPC)) did it give?
Answer: 109 % of control

Question: And the T/C (dose: 2.5 mg/kg/injection, schedule: Q04DX004 (ip), vehicle: Klucel (hydroxypropylcellulose) (HPC))?
Answer: 97 % of control

Question: And the T/C (dose: 5.0 mg/kg/injection, schedule: Q04DX004 (ip), vehicle: Klucel (hydroxypropylcellulose) (HPC))?
Answer: 102 % of control

Question: And the T/C (dose: 10.0 mg/kg/injection, schedule: Q04DX004 (ip), vehicle: Klucel (hydroxypropylcellulose) (HPC))?
Answer: 102 % of control

Question: And the T/C [12]?
Answer: 98 % of control

Question: How did the T/C [1] turn out when `COc1cc2c(c3c1c(=O)c1cccc(F)c1n3C)C=CC(C)(C)O2` was run?
Answer: 112 % of control

Question: What about the T/C [9] of the same molecule?
Answer: 120 % of control

Question: How did the T/C (dose: 2.5 mg/kg/injection, schedule: Q04DX004 (ip), vehicle: saline) turn out when `CC(=O)c1cccc(NC2C(N)C(NC(=O)N(C)C)(C(C)O)C(C)(O)C2(O)COC(=O)c2c(C)cccc2O)c1` (configuration not stated) was run?
Answer: 112 % of control and 114 % of control

Question: And the T/C (dose: 5.0 mg/kg/injection, schedule: Q04DX004 (ip), vehicle: saline)?
Answer: 105 % of control and 115 % of control

Question: What about the T/C (dose: 10.0 mg/kg/injection, schedule: Q04DX004 (ip), vehicle: saline) of the same molecule?
Answer: 117 % of control and 120 % of control

Question: And the T/C (dose: 20.0 mg/kg/injection, schedule: Q04DX004 (ip), vehicle: saline)?
Answer: 115 % of control

Question: For `CCc1ccccc1N1CCN(C(=O)c2cc(OC)c(OC)c(OC)c2)CC1`, which T/C [12] is on record?
Answer: 111 % of control

Question: And the T/C [1]?
Answer: 112 % of control

Question: What about the T/C [9] of the same molecule?
Answer: 122 % of control

Question: Which T/C (dose: 12.5 mg/kg/injection, schedule: Q04DX004 (ip), vehicle: saline with Tween-80) does the source give for `Clc1ccccc1C(Cc1c(Cl)cccc1Cl)Cn1ccnc1` (configuration not stated) here?
Answer: 100 % of control

Question: What about the T/C [4] of the same molecule?
Answer: 101 % of control

Question: And the T/C [5]?
Answer: 101 % of control

Question: What about the T/C [6] of the same molecule?
Answer: 93 % of control

Question: With `NC(=O)c1c[se]c(C2OC(CO)C(O)C2O)n1` (configuration not stated) as the molecule, how does the T/C (dose: 25.0 mg/kg/injection, schedule: Q04DX004 (ip), vehicle: water) read?
Answer: 96 % of control

Question: What about the T/C (dose: 50.0 mg/kg/injection, schedule: Q04DX004 (ip), vehicle: water) of the same molecule?
Answer: 100 % of control

Question: What about the T/C (dose: 100.0 mg/kg/injection, schedule: Q04DX004 (ip), vehicle: water) of the same molecule?
Answer: 102 % of control

Question: And the T/C (dose: 200.0 mg/kg/injection, schedule: Q04DX004 (ip), vehicle: water)?
Answer: 106 % of control

Question: What about the T/C (dose: 400.0 mg/kg/injection, schedule: Q04DX004 (ip), vehicle: water) of the same molecule?
Answer: 113 % of control

Question: Which T/C [10] does the source give for `CN1CCc2c(c3ccccc3c3ccccc23)C1` here?
Answer: 114 % of control

Question: And the T/C [11]?
Answer: 122 % of control

Question: What does the source list for `CCC1=C(c2cccc(OC(C)=O)c2)C(C)c2ccc(OC(C)=O)cc21` (configuration not stated)?
Answer: T/C (dose: 6.25 mg/kg/injection, schedule: Q04DX004 (ip), vehicle: Klucel (hydroxypropylcellulose) (HPC)): 93 % of control; T/C (dose: 12.5 mg/kg/injection, schedule: Q04DX004 (ip), vehicle: Klucel (hydroxypropylcellulose) (HPC)): 93 % of control; T/C [12]: 100 % of control; T/C [1]: 116 % of control; T/C [9]: 105 % of control; T/C [2]: 91 % of control

Question: `CC1=C(N2CCOCC2)C(N2CCOCC2)=C(C)C(=O)C1=O` was tested. Which T/C [1] did it give?
Answer: 104 % of control

Question: And the T/C [9]?
Answer: 100 % of control

Question: And the T/C [2]?
Answer: 100 % of control

Question: What about the T/C [3] of the same molecule?
Answer: 113 % of control

Question: And the T/C (dose: 800.0 mg/kg/injection, schedule: Q04DX004 (ip), vehicle: Klucel (hydroxypropylcellulose) (HPC))?
Answer: 95 % of control
